Patent US8129037B2, “Phenanthrene derivative” (priority 2005, dated 2012)

Experiment: Solubility comparison in common organic solvents
Type: physicochemical
Details: qualitative
Text: In contrast, phenanthrenes which are structurally analogous but unsubstituted in the 9- and 10-position have distinctly poorer solubility in organic solvents. This leads to considerable problems in the purification, since substantially larger apparatus and distinctly larger amounts of solvent are required for this purpose.

Cc1ccc(-c2ccc3c(c2)c(C)c(C)c2cc(-c4ccc(C)c5ccccc45)ccc23)c2ccccc12 [Example P1]
Solubility in common organic solvents: moderate to good
